The SangsterLogP compilation

Experiment: method code SF-AS, from DOI: 10.1021/jf00106a008
Settings: pH 7.3

Compound	logD
Cc1[nH]c(=O)n(OCCCl)c(=O)c1Br	0.3
CCCOn1c(=O)c(Br)c(C)n(C)c1=O	0.72
CCCCCOn1c(=O)[nH]c(C)c(Br)c1=O	1.69
CCCOn1c(=O)[nH]c(C)c(SC#N)c1=O	-0.22
CCCCCCCCCCOn1c(=O)[nH]c(C)c(Br)c1=O	4.65
CCC(C)On1c(=O)[nH]c(C)c(Br)c1=O (stereo not drawn)	1.11
CCCCCCCCOn1c(=O)[nH]c(C)c(Br)c1=O	3.38
CCCOn1c(=O)cc(C)[nH]c1=O	0.3
CCCOn1c(=O)[nH]c(CCC)c(Br)c1=O	1.73
CCCOn1c(=O)[nH]c(C)c(Br)c1=O	0.76
CCCCOn1c(=O)[nH]c(C)c(Br)c1=O	1.26
COn1c(=O)[nH]c(C)c(Br)c1=O	-0.3
C#CCOn1c(=O)[nH]c(C)c(Br)c1=O	-0.1
C=CCOn1c(=O)[nH]c(C)c(Br)c1=O	0.32
Cc1[nH]c(=O)n(OCC(C)C)c(=O)c1Br	1.23
Cc1[nH]c(=O)n(OC(C)C)c(=O)c1Br	0.45
CCOn1c(=O)[nH]c(C)c(Br)c1=O	0.11
CCCCCCOn1c(=O)[nH]c(C)c(Br)c1=O	2.48
